Test system: Rattus norvegicus
Assay: Antihypertensive activity in deoxy-corticosterone acetate-induced Sprague-Dawley rat assessed as reduction of blood pressure at 4.8 mg/kg, iv
Format: functional

Row | SMILES | Activity [mmHg]
1 | C[C@@]12CC[C@]3(O)[C@@](CC[C@@H]4[C@](C)(C(=O)O)CCC[C@]43C)(CC1=O)C2 | 7
2 | C[C@@]12CC[C@@H]3[C@@](CC[C@H]4[C@@]3(C)CCC[C@@]4(C)C(=O)O)(CC1=O)C2 [ISOSTEVIOL] | 12
